Experimental data from paper PMC10004559, “Identification of residues involved in allosteric signal transmission from amino acid binding site of pyruvate kinase muscle isoform 2” (PLOS ONE, 2023).
“And” between values parts separate entries of the source, which are not always exact repeats. Equal values may be shown once. Read-outs that look alike come from different tables or passages of the source.

Tests used:
PKM2 N75L [1] = biological target: T1, PKM2 N75L (Homo sapiens, UniProt P14618, N75L); assay: Ligand binding assay, intrinsic tryptophan fluorescence quenching; details: 1.6 μM PKM2 N75L, no AA ligand; read-out: Kd, ADP as titrant
T1 construct: made in house; host or cells: E. coli BL21(DE3) pLysS
Protocol: (§1) The decrease of intrinsic tryptophan fluorescence with increasing substrate concentration was measured using a Cary Eclipse Fluorescence Spectrophotometer (Agilent Technologies, Santa Clara, CA). To determine the binding affinity of wtPKM2 and the variants for the AAs mentioned previously, the enzymes were dissolved in the buffer followed by monitoring fluorescence quenching as the AA concentration was increased. The wavelength used to excite PKM2 was set at 295 nm, while the emission wavelength was 340 nm with slit widths of 5 and 10 nm, respectively. The fluorescence intensity values were used to calculate fractional saturation, which was fitted to the one-site specific binding Eq (3), or the Hill Eq (4) using GraphPad Prism (San Diego, CA), Y=Bmax×X/Kd+X (3) Y=Bmax×x^h/Kdh+x^h (4) where Bmax is maximum binding, Y is fractional saturation, h is the Hill coefficient, Kd is dissociation constant, and X is ligand concentration.

PKM2 R106A [2] = biological target: T2, PKM2 R106A (Homo sapiens, UniProt P14618, R106A); assay: as above; details: for weakening of ADP binding affinity versus absence of any AAs: PKM2 R106A in the presence of the labelled AA; for decrease of affinity for the AA relative to wtPKM2: PKM2 R106A versus wtPKM2
T2 construct: made in house; host or cells: E. coli BL21(DE3) pLysS
Protocol: as §1, with “All ligand binding studies were conducted in a buffer containing 1.6 μM enzyme dissolved in 20 mM Tris-HCl (pH 7.5) and 150 mM KCl. […] The decrease” for “The decrease”

wtPKM2 [3] = biological target: T3, wtPKM2 (Homo sapiens, UniProt P14618); details: cited from earlier work
T3 construct: made in house; host or cells: E. coli BL21(DE3) pLysS

PKM2 N70D [4] = biological target: T4, PKM2 N70D (Homo sapiens, UniProt P14618, N70D); assay: Ligand binding assay, intrinsic tryptophan fluorescence quenching; design: made in house; host or cells: E. coli BL21(DE3) pLysS; details: no AA ligand, read-out: Kd, ADP as titrant
Protocol: as §1, with “All ligand binding studies were conducted in a buffer containing 1.6 μM enzyme dissolved in 20 mM Tris-HCl (pH 7.5) and 150 mM KCl. […] The decrease” for “The decrease”

wtPKM2 [5] = biological target: T3, wtPKM2; assay: PKM2-LDH coupled pyruvate kinase activity assay; format: biochemical; details: ADP 0.8 mM; for Vmax / kcat: 10 nM wtPKM2 in presence of 2 mM of the labelled AA, PEP varied
Protocol: (§3) The decrease in absorbance at 340 nm was recorded for a minute to monitor the progress of the reactions.

PKM2 N75L [6] = biological target: T1, PKM2 N75L; assay: PKM2-LDH coupled pyruvate kinase activity assay; format: biochemical; details: 4200 nM PKM2 N75L in presence of 2 mM of the labelled AA; PEP 0.025–8 mM, ADP 0.8 mM
Protocol: as §3

PKM2 R106A [7] = biological target: T2, PKM2 R106A; assay: PKM2-LDH coupled pyruvate kinase activity assay; format: biochemical; details: for Vmax / kcat: 50 nM PKM2 R106A in presence of 2 mM of the labelled AA (Val 10 mM), PEP 0.025–8 mM, ADP 0.8 mM, Cys data fitted with allosteric sigmoidal equation; for decrease of catalytic efficiency of PKM2 R106A: in the presence of Val (10 mM) and Cys (2 mM), versus no AA
Protocol: as §3

PKM2 N75L [8] = biological target: T1, PKM2 N75L; assay: Gel-filtration study of oligomeric state; details: 0.1 mg/ml PKM2 N75L, 10 mM AA
Protocol: (§2) The flow rate was kept constant at 0.5 ml/min using an AKTA Pure FPLC system (GE Healthcare Life Sciences, Marlborough, MA). All AA concentrations used in the experiments were fixed at 10 mM. Column calibration was conducted using gel-filtration molecular weight standards (Bio-Rad) containing bovine thyroglobulin (670 kDa), bovine γ-globulin (158 kDa), chicken ovalbumin (44 kDa), horse myoglobin (17 kDa), and vitamin B12 (1.35 kDa). The eluted protein peak was observed using UV absorbance at 280 nm. To normalize the lowest and highest intensity value, they were set to 0% and 100%, respectively, which was plotted against elution volume in GraphPad Prism (San Diego, CA).

PKM2 R106A [9] = biological target: T2, PKM2 R106A; assay: Gel-filtration study of oligomeric state; details: 0.1 mg/ml PKM2 R106A, 10 mM AA
Protocol: as §2

wtPKM2 [10] = biological target: T3, wtPKM2; design: method as in PMID 32144209; details: wtPKM2 in the presence of Val; cited from earlier work
PKM2 N70D [11] = biological target: T4, PKM2 N70D; assay: PKM2-LDH coupled pyruvate kinase activity assay; details: 65 nM PKM2 N70D in presence of 2 mM of the labelled AA; PEP 0.025–8 mM, ADP 0.8 mM
Protocol: as §3

PKM2 N70D [12] = biological target: T4, PKM2 N70D; assay: Gel-filtration study of oligomeric state; design: made in house; host or cells: E. coli BL21(DE3) pLysS; details: 0.1 mg/ml PKM2 N70D, 10 mM AA
Protocol: as §2

wtPKM2 [13] = biological target: T3, wtPKM2; assay: Gel-filtration study of oligomeric state; details: 0.1 mg/ml wtPKM2, 10 mM AA
Protocol: as §2

[14] = 2 mM AA, 10 nM enzyme, PEP 0.15–8 mM, versus no AA
[15] = 1.6 μM PKM2 R106A, read-out: Kd for the AA (AA as titrant)

T4 sequence (P14618 whole entry N70D): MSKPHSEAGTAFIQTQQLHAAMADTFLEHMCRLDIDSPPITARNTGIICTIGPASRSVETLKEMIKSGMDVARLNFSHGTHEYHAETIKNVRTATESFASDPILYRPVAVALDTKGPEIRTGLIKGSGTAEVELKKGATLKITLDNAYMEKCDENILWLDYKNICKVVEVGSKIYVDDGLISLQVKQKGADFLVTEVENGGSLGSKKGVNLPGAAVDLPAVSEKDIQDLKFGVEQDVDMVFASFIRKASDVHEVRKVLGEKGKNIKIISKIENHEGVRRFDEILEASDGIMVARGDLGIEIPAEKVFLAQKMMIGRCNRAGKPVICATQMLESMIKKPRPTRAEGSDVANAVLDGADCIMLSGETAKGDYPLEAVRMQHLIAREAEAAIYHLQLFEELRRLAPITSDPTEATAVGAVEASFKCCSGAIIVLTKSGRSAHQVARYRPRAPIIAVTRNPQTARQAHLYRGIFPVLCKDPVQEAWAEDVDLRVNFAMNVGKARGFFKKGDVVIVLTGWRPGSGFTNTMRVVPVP
T3 sequence (P14618 whole entry): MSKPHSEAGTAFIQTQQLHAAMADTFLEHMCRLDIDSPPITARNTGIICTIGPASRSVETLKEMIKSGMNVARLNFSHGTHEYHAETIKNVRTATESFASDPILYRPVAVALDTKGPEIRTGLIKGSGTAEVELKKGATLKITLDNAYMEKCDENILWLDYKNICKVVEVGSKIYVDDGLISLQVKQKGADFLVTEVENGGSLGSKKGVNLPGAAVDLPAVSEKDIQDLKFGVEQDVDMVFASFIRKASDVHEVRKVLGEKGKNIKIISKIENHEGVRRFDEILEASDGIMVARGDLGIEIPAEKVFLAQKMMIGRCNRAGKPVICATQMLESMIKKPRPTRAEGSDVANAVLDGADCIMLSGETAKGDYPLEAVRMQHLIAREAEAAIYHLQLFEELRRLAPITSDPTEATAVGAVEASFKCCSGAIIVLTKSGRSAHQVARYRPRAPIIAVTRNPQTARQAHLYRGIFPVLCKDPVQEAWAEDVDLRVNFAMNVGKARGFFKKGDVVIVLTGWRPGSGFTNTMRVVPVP
T1 sequence (P14618 whole entry N75L): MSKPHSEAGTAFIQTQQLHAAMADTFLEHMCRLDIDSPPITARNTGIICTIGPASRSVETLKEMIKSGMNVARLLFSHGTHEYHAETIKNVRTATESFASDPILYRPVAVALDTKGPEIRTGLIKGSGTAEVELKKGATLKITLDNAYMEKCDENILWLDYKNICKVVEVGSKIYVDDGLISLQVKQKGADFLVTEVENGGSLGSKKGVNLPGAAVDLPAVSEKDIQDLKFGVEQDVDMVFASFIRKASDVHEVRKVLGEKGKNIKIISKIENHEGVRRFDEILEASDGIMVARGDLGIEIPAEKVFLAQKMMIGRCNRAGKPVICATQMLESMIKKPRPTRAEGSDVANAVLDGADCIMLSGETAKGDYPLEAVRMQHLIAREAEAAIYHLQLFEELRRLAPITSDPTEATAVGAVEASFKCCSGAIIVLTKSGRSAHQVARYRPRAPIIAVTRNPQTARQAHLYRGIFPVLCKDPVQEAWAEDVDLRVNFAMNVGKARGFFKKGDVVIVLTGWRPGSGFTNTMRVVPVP
T2 sequence (P14618 whole entry R106A): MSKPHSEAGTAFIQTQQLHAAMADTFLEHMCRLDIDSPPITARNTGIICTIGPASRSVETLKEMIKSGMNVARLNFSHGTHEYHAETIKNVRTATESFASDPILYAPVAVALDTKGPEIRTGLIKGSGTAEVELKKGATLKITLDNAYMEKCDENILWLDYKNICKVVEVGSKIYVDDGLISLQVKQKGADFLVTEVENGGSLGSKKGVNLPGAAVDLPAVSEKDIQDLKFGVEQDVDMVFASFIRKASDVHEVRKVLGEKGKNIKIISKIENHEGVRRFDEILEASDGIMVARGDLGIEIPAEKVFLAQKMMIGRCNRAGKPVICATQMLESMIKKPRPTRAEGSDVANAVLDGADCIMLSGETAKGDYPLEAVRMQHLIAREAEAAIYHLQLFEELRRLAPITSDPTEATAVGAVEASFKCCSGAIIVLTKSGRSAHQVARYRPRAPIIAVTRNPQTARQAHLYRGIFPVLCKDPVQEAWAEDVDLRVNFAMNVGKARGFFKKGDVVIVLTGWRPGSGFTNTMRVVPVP

SMILES	Vmax (wtPKM2 [5]) [µM/min]	kcat (wtPKM2 [5])	Vmax (PKM2 N75L [6]) [µM/min]	kcat (PKM2 N75L [6])	Vmax (PKM2 R106A [7]) [µM/min]	kcat (PKM2 R106A [7])	Kd (PKM2 R106A [2]; [15]) [µM]	decrease of affinity for the AA relative to wtPKM2 (PKM2 R106A [2])	Vmax (PKM2 N70D [11]) [µM/min]	kcat (PKM2 N70D [11])	oligomeric state change (PKM2 N70D [12])	also measured
Nc1ncnc2c1ncn2[C@@H]1O[C@H](COP(=O)(O)OP(=O)(O)O)[C@@H](O)[C@H]1O [ADP, adenosine diphosphate]	–	–	–	–	–	–	–	–	–	–	–	Kd (PKM2 N75L [1]): 449 ± 48 µM; Kd (PKM2 R106A [2]; 1.6 μM PKM2 R106A, no AA ligand, read-out: Kd, ADP as titrant): 257 ± 24 µM; Kd (wtPKM2 [3]; […] wtPKM2, no AA ligand, marked (2) in S2 Table, read-out: Kd, ADP as titrant): 237 ± 54 µM; Kd (PKM2 N70D [4]): 644 ± 154 µM
C=C(OP(=O)(O)O)C(=O)O [PEP, phosphoenolpyruvate]	–	–	–	–	–	–	–	–	–	–	–	Kd (wtPKM2 [3]; read-out: Kd, PEP as titrant, […] wtPKM2, no AA ligand, marked (2) in S2 Table): 10 ± 2 µM
CC(C)[C@H](N)C(=O)O [Val, valine]	74 ± 5	7.4±0.5 ×10^3 min^-1	34 ± 2	0.008±0.0 ×10^3 min^-1	346 ± 12	6.9±0.2 ×10^3 min^-1	~1600	2–4 fold	324 ± 37	4.9±0.6 ×10^3 min^-1	did not change the oligomeric state	decrease of kcat/Km of wtPKM2 (wtPKM2 [5]; [14]): ~ 4 fold; decrease of catalytic efficiency of PKM2 R106A (PKM2 R106A [7]): 2–7 fold; weakening of ADP binding affinity versus absence of any AAs (PKM2 R106A [2]): ~ 10 fold; oligomeric state change (PKM2 N75L [8]): the dimer/monomer fraction increased; oligomeric state change (PKM2 R106A [9]): resulted in a mixture of tetramer and dimer/monomer equilibrium; oligomeric state change (wtPKM2 [10]): shift from an active tetramer to a mixture of tetramer and dimer/monomer equilibrium
N[C@@H](CS)C(=O)O [Cys, cysteine]	65 ± 7	6.5±0.7 ×10^3 min^-1	33 ± 3	0.008±0.0 ×10^3 min^-1	291 ± 9	5.8±0.2 ×10^3 min^-1	36	2–4 fold	334 ± 15	5.1±0.2 ×10^3 min^-1	did not change the oligomeric state	decrease of kcat/Km of wtPKM2 (wtPKM2 [5]; [14]): ~ 4 fold; decrease of catalytic efficiency of PKM2 R106A (PKM2 R106A [7]): 2–7 fold; weakening of ADP binding affinity versus absence of any AAs (PKM2 R106A [2]): ~ 10 fold; oligomeric state change (PKM2 N75L [8]): the dimer/monomer fraction increased; oligomeric state change (PKM2 R106A [9]): resulted in a mixture of tetramer and dimer/monomer equilibrium; oligomeric state change (wtPKM2 [13]): shift from an active tetramer to a mixture of tetramer and dimer/monomer equilibrium
N[C@@H](CC(=O)O)C(=O)O [Asp, aspartate]	104 ± 2	10.4±0.2 ×10^3 min^-1	51 ± 3	0.012±0.0 ×10^3 min^-1	295 ± 6	5.9±0.1 ×10^3 min^-1	~70	–	307 ± 10	4.7±0.1 ×10^3 min^-1	dimer/monomer fraction decreased	–
NC(=O)C[C@H](N)C(=O)O [Asn, asparagine]	113 ± 4	11.3±0.4 ×10^3 min^-1	50 ± 2	0.012±0.0 ×10^3 min^-1	318 ± 8	6.3±0.2 ×10^3 min^-1	–	2–4 fold	340 ± 8	5.2±0.3 ×10^3 min^-1	dimer/monomer fraction decreased	increase of kcat/Km of wtPKM2 (wtPKM2 [5]; [14]): ~ 8 fold; Kd (PKM2 R106A [2]; […] PKM2 R106A, read-out: Kd for the AA (AA as titrant)): 42 ± 10 µM
O=C(COP(=O)(O)O)[C@@H](O)[C@H](O)[C@H](O)COP(=O)(O)O [FBP, fructose-1,6-bisphosphate]	–	–	–	–	–	–	–	–	–	–	–	Kd (wtPKM2 [3]; wtPKM2, read-out: Kd for FBP): 0.00098 µM and 0.001 µM
